Reference: the NIST ThermoML archive (doi:10.1021/je4001697)
± gives the expanded uncertainty stated by the source.

Settings: Liquid, Pulse-echo method

## Cc1ccccc1 [toluene]
240 K, 103.32 kPa
  speed of sound: 1571 ± 1 m/s
240 K, 1104.2 kPa
  speed of sound: 1575 ± 1 m/s
240 K, 2104.9 kPa
  speed of sound: 1578.9 ± 1 m/s
240 K, 3105.7 kPa
  speed of sound: 1582.8 ± 1 m/s
240 K, 4106.3 kPa
  speed of sound: 1586.7 ± 1 m/s
240 K, 5107.4 kPa
  speed of sound: 1590.5 ± 1 m/s
240 K, 6107.7 kPa
  speed of sound: 1594.3 ± 1 m/s
240 K, 7108.4 kPa
  speed of sound: 1598.1 ± 1 m/s
240 K, 8109.1 kPa
  speed of sound: 1601.9 ± 1 m/s
240 K, 9109.8 kPa
  speed of sound: 1605.7 ± 1 m/s
240 K, 10110 kPa
  speed of sound: 1609.4 ± 1 m/s
240 K, 12612 kPa
  speed of sound: 1618.6 ± 1 m/s
240 K, 15114 kPa
  speed of sound: 1627.7 ± 1.1 m/s
240 K, 17616 kPa
  speed of sound: 1636.7 ± 1.1 m/s
240 K, 20117 kPa
  speed of sound: 1645.6 ± 1.1 m/s
240 K, 25121 kPa
  speed of sound: 1663 ± 1.1 m/s
240 K, 30124 kPa
  speed of sound: 1680 ± 1.1 m/s
240 K, 35127 kPa
  speed of sound: 1696.5 ± 1.1 m/s
240 K, 40131 kPa
  speed of sound: 1712.7 ± 1.1 m/s
240 K, 45134 kPa
  speed of sound: 1728.5 ± 1.1 m/s
240 K, 50138 kPa
  speed of sound: 1744 ± 1.1 m/s
240 K, 60144 kPa
  speed of sound: 1774 ± 1.1 m/s
240 K, 70151 kPa
  speed of sound: 1802.9 ± 1.2 m/s
240 K, 80158 kPa
  speed of sound: 1830.7 ± 1.2 m/s
240 K, 90165 kPa
  speed of sound: 1857.6 ± 1.2 m/s
240 K, 100172 kPa
  speed of sound: 1883.6 ± 1.2 m/s
260 K, 102.53 kPa
  speed of sound: 1476.8 ± 0.95 m/s
260 K, 1103.4 kPa
  speed of sound: 1481.1 ± 1 m/s
260 K, 2104 kPa
  speed of sound: 1485.4 ± 0.95 m/s
260 K, 3104.8 kPa
  speed of sound: 1489.7 ± 0.95 m/s
260 K, 4105.6 kPa
  speed of sound: 1493.9 ± 1 m/s
260 K, 5106.5 kPa
  speed of sound: 1498.1 ± 0.97 m/s
260 K, 6106.8 kPa
  speed of sound: 1502.3 ± 0.97 m/s
260 K, 7107.5 kPa
  speed of sound: 1506.5 ± 0.97 m/s
260 K, 8108.3 kPa
  speed of sound: 1510.6 ± 0.97 m/s
260 K, 9109 kPa
  speed of sound: 1514.7 ± 0.97 m/s
260 K, 10110 kPa
  speed of sound: 1518.8 ± 0.98 m/s
260 K, 12612 kPa
  speed of sound: 1528.8 ± 0.99 m/s
260 K, 15114 kPa
  speed of sound: 1538.7 ± 0.99 m/s
260 K, 17615 kPa
  speed of sound: 1548.5 ± 1 m/s
260 K, 20117 kPa
  speed of sound: 1558.1 ± 1 m/s
260 K, 25121 kPa
  speed of sound: 1576.9 ± 1 m/s
260 K, 30124 kPa
  speed of sound: 1595.2 ± 1 m/s
260 K, 35128 kPa
  speed of sound: 1613 ± 1.1 m/s
260 K, 40131 kPa
  speed of sound: 1630.4 ± 1.1 m/s
260 K, 45134 kPa
  speed of sound: 1647.3 ± 1.1 m/s
260 K, 50138 kPa
  speed of sound: 1663.9 ± 1.1 m/s
260 K, 60145 kPa
  speed of sound: 1695.8 ± 1.1 m/s
260 K, 70152 kPa
  speed of sound: 1726.5 ± 1.1 m/s
260 K, 80160 kPa
  speed of sound: 1756 ± 1.2 m/s
260 K, 90166 kPa
  speed of sound: 1784.3 ± 1.2 m/s
260 K, 100174 kPa
  speed of sound: 1811.7 ± 1.2 m/s
280 K, 103.62 kPa
  speed of sound: 1385.5 ± 0.9 m/s
280 K, 1104.5 kPa
  speed of sound: 1390.2 ± 0.9 m/s
280 K, 2105.3 kPa
  speed of sound: 1395 ± 0.9 m/s
280 K, 3106.2 kPa
  speed of sound: 1399.7 ± 0.9 m/s
280 K, 4107.1 kPa
  speed of sound: 1404.3 ± 0.9 m/s
280 K, 5107.6 kPa
  speed of sound: 1408.9 ± 0.92 m/s
280 K, 6108.1 kPa
  speed of sound: 1413.5 ± 0.9 m/s
280 K, 7108.8 kPa
  speed of sound: 1418 ± 0.92 m/s
280 K, 8109.4 kPa
  speed of sound: 1422.5 ± 0.92 m/s
280 K, 9110.1 kPa
  speed of sound: 1427 ± 0.92 m/s
280 K, 10111 kPa
  speed of sound: 1431.5 ± 0.93 m/s
280 K, 12612 kPa
  speed of sound: 1442.4 ± 0.94 m/s
280 K, 15114 kPa
  speed of sound: 1453.2 ± 0.94 m/s
280 K, 17616 kPa
  speed of sound: 1463.8 ± 0.95 m/s
280 K, 20118 kPa
  speed of sound: 1474.2 ± 0.96 m/s
280 K, 25122 kPa
  speed of sound: 1494.5 ± 0.97 m/s
280 K, 30125 kPa
  speed of sound: 1514.2 ± 0.99 m/s
280 K, 35128 kPa
  speed of sound: 1533.3 ± 1 m/s
280 K, 40132 kPa
  speed of sound: 1551.9 ± 1 m/s
280 K, 45135 kPa
  speed of sound: 1570 ± 1 m/s
280 K, 50138 kPa
  speed of sound: 1587.6 ± 1.1 m/s
280 K, 60145 kPa
  speed of sound: 1621.5 ± 1.1 m/s
280 K, 70152 kPa
  speed of sound: 1654 ± 1.1 m/s
280 K, 80159 kPa
  speed of sound: 1685.1 ± 1.1 m/s
280 K, 90166 kPa
  speed of sound: 1714.9 ± 1.1 m/s
280 K, 100173 kPa
  speed of sound: 1743.7 ± 1.2 m/s
300 K, 102.33 kPa
  speed of sound: 1297.2 ± 0.85 m/s
300 K, 103.33 kPa
  speed of sound: 1297.1 ± 0.85 m/s
300 K, 1103.2 kPa
  speed of sound: 1302.4 ± 0.9 m/s
300 K, 2104.1 kPa
  speed of sound: 1307.6 ± 0.9 m/s
300 K, 3104.7 kPa
  speed of sound: 1312.7 ± 0.85 m/s
300.01 K, 1104.2 kPa
  speed of sound: 1302.4 ± 0.85 m/s
300.01 K, 2104.9 kPa
  speed of sound: 1307.6 ± 0.85 m/s
300.01 K, 3105.6 kPa
  speed of sound: 1312.7 ± 0.9 m/s
300.01 K, 4106.4 kPa
  speed of sound: 1317.8 ± 0.9 m/s
300.01 K, 5107 kPa
  speed of sound: 1322.9 ± 0.87 m/s
300.01 K, 6107.4 kPa
  speed of sound: 1327.9 ± 0.87 m/s
300.01 K, 7108.1 kPa
  speed of sound: 1332.8 ± 0.87 m/s
300.01 K, 8108.7 kPa
  speed of sound: 1337.8 ± 0.87 m/s
300.01 K, 9109.4 kPa
  speed of sound: 1342.6 ± 0.87 m/s
300.01 K, 10110 kPa
  speed of sound: 1347.5 ± 0.88 m/s
300.01 K, 12612 kPa
  speed of sound: 1359.4 ± 0.89 m/s
300.01 K, 15113 kPa
  speed of sound: 1371.1 ± 0.9 m/s
300.01 K, 17615 kPa
  speed of sound: 1382.5 ± 0.9 m/s
300.01 K, 20117 kPa
  speed of sound: 1393.8 ± 0.92 m/s
300.01 K, 25120 kPa
  speed of sound: 1415.7 ± 0.92 m/s
300.01 K, 30124 kPa
  speed of sound: 1436.8 ± 0.94 m/s
300.01 K, 35127 kPa
  speed of sound: 1457.3 ± 1 m/s
300.01 K, 40130 kPa
  speed of sound: 1477.1 ± 0.97 m/s
300.01 K, 45133 kPa
  speed of sound: 1496.4 ± 1 m/s
300.01 K, 50136 kPa
  speed of sound: 1515.1 ± 1 m/s
300.01 K, 60143 kPa
  speed of sound: 1551.1 ± 1 m/s
300.01 K, 70150 kPa
  speed of sound: 1585.4 ± 1.1 m/s
300.01 K, 80158 kPa
  speed of sound: 1618.1 ± 1.1 m/s
300.01 K, 90166 kPa
  speed of sound: 1649.4 ± 1.1 m/s
300.01 K, 100172 kPa
  speed of sound: 1679.5 ± 1.1 m/s
320 K, 102.82 kPa
  speed of sound: 1211.6 ± 0.8 m/s
320 K, 102.83 kPa
  speed of sound: 1211.6 ± 0.8 m/s
320 K, 1103.6 kPa
  speed of sound: 1217.3 ± 0.8 m/s
320 K, 2104.3 kPa
  speed of sound: 1223.1 ± 0.8 m/s
320 K, 3105 kPa
  speed of sound: 1228.7 ± 0.8 m/s
320 K, 4105.8 kPa
  speed of sound: 1234.3 ± 0.82 m/s
320 K, 5106.6 kPa
  speed of sound: 1239.9 ± 0.82 m/s
320 K, 6107.1 kPa
  speed of sound: 1245.4 ± 0.82 m/s
320 K, 7107.8 kPa
  speed of sound: 1250.8 ± 0.8 m/s
320 K, 8108.5 kPa
  speed of sound: 1256.2 ± 0.82 m/s
320 K, 9109.2 kPa
  speed of sound: 1261.5 ± 0.8 m/s
320 K, 10110 kPa
  speed of sound: 1266.8 ± 0.83 m/s
320 K, 12612 kPa
  speed of sound: 1279.7 ± 0.84 m/s
320 K, 15113 kPa
  speed of sound: 1292.4 ± 0.85 m/s
320 K, 17615 kPa
  speed of sound: 1304.8 ± 0.87 m/s
320 K, 20117 kPa
  speed of sound: 1317 ± 0.87 m/s
320 K, 25120 kPa
  speed of sound: 1340.5 ± 0.89 m/s
320 K, 30124 kPa
  speed of sound: 1363.2 ± 0.9 m/s
320 K, 35127 kPa
  speed of sound: 1385.1 ± 0.91 m/s
320 K, 40131 kPa
  speed of sound: 1406.2 ± 0.93 m/s
320 K, 45134 kPa
  speed of sound: 1426.7 ± 0.94 m/s
320 K, 50138 kPa
  speed of sound: 1446.5 ± 0.96 m/s
320 K, 60145 kPa
  speed of sound: 1484.5 ± 0.98 m/s
320 K, 70152 kPa
  speed of sound: 1520.6 ± 1 m/s
320 K, 80159 kPa
  speed of sound: 1554.9 ± 1 m/s
320 K, 90166 kPa
  speed of sound: 1587.7 ± 1.1 m/s
320 K, 100173 kPa
  speed of sound: 1619.1 ± 1.1 m/s
340 K, 102.94 kPa
  speed of sound: 1128.5 ± 0.75 m/s
